ChEMBL document CHEMBL3822364, “Synthesis, characterization and antimicrobial activity of novel Schiff base tethered boronate esters of 1,2-O-isopropylidene-α-d-xylofuranose” (2016)
In brackets after ≈: the same amount, converted by molar mass.

Tests used:
[1] = tested on: Candida albicans; assay: Antifungal activity against Candida albicans MTCC 3017 measured after 48 hrs by NCCL protocol based broth dilution method; format: functional; conditions: MTCC 3017, 48 h
[2] = tested on: Klebsiella pneumoniae; assay: Antibacterial activity against Klebsiella pneumoniae MTCC 3384 measured after 24 hrs by NCCL protocol based broth dilution method; format: functional; conditions: MTCC 3384, 24 h
[3] = tested on: Salmonella paratyphi; assay: Antibacterial activity against Salmonella paratyphi assessed as zone of inhibition at 100 ug/well measured after 24 hrs by agar well diffusion method; format: functional, Salmonella enterica subsp. enterica serovar Paratyphi A; conditions: Salmonella enterica, read-out: DIZ
[4] = tested on: Salmonella typhi; assay: Antibacterial activity against Salmonella typhi assessed as zone of inhibition at 100 ug/well measured after 24 hrs by agar well diffusion method; format: functional, Salmonella enterica subsp. enterica serovar Typhi; conditions: Salmonella enterica, read-out: DIZ
[5] = tested on: Aspergillus fumigatus; assay: Antifungal activity against Aspergillus fumigatus MTCC 343 assessed as zone of inhibition at 100 ug/well measured after 48 hrs by agar well diffusion method; format: functional; conditions: MTCC 343, 48 h, read-out: DIZ
[6] = tested on: Salmonella typhi; assay: Antibacterial activity against Salmonella typhi measured after 24 hrs by NCCL protocol based broth dilution method; format: functional, Salmonella enterica subsp. enterica serovar Typhi; conditions: Salmonella enterica
[7] = tested on: Streptococcus mutans; assay: Antibacterial activity against Streptococcus mutans MTCC 497 measured after 24 hrs by NCCL protocol based broth dilution method; format: functional; conditions: MTCC 497, 24 h
[8] = tested on: Micrococcus luteus; assay: Antibacterial activity against Micrococcus luteus MTCC 106 assessed as zone of inhibition at 100 ug/well measured after 24 hrs by agar well diffusion method; format: functional; conditions: MTCC 106, 24 h, read-out: DIZ
[9] = tested on: Staphylococcus aureus; assay: Antibacterial activity against Staphylococcus aureus MTCC 3160 measured after 24 hrs by NCCL protocol based broth dilution method; format: functional; conditions: MTCC 3160, 24 h
[10] = tested on: Klebsiella pneumoniae; assay: Antibacterial activity against Klebsiella pneumoniae MTCC 3384 assessed as zone of inhibition at 100 ug/well measured after 24 hrs by agar well diffusion method; format: functional; conditions: MTCC 3384, 24 h, read-out: DIZ
[11] = tested on: Micrococcus luteus; assay: Antibacterial activity against Micrococcus luteus MTCC 106 measured after 24 hrs by NCCL protocol based broth dilution method; format: functional; conditions: MTCC 106, 24 h
[12] = tested on: Salmonella paratyphi; assay: Antibacterial activity against Salmonella paratyphi measured after 24 hrs by NCCL protocol based broth dilution method; format: functional, Salmonella enterica subsp. enterica serovar Paratyphi A; conditions: Salmonella enterica
[13] = tested on: Aspergillus fumigatus; assay: Antifungal activity against Aspergillus fumigatus MTCC 343 measured after 48 hrs by NCCL protocol based broth dilution method; format: functional; conditions: MTCC 343, 48 h
[14] = tested on: Candida albicans; assay: Antifungal activity against Candida albicans MTCC 3017 assessed as zone of inhibition at 100 ug/well measured after 48 hrs by agar well diffusion method; format: functional; conditions: MTCC 3017, 48 h, read-out: DIZ
[15] = tested on: Staphylococcus aureus; assay: Antibacterial activity against Staphylococcus aureus MTCC 3160 assessed as zone of inhibition at 100 ug/well measured after 24 hrs by agar well diffusion method; format: functional; conditions: MTCC 3160, 24 h, read-out: DIZ
[16] = tested on: Streptococcus mutans; assay: Antibacterial activity against Streptococcus mutans MTCC 497 assessed as zone of inhibition at 100 ug/well measured after 24 hrs by agar well diffusion method; format: functional; conditions: MTCC 497, 24 h, read-out: DIZ

Row | SMILES | MIC [1] [µg/mL] | MIC [2] [µg/mL] | zone of inhibition at 100 µg/disc [3] [mm] | zone of inhibition at 100 µg/disc [4] [mm] | zone of inhibition at 100 µg/disc [5] [mm] | MIC [6] [µg/mL] | MIC [7] [µg/mL] | zone of inhibition at 100 µg/disc [8] [mm] | MIC [9] [µg/mL] | zone of inhibition at 100 µg/disc [10] [mm] | MIC [11] [µg/mL] | MIC [12] [µg/mL] | MIC [13] [µg/mL] | zone of inhibition at 100 µg/disc [14] [mm] | zone of inhibition at 100 µg/disc [15] [mm] | zone of inhibition at 100 µg/disc [16] [mm]
1 | CC1(C)O[C@H]2O[C@@H]3COB(c4cccc(/N=C/c5ccc(Br)cc5O)c4)O[C@@H]3[C@H]2O1 | 125 (≈ 264 µM) | 125 (≈ 264 µM) | 14 | 24 | 0 | 31.2 (≈ 65.9 µM) | 125 (≈ 264 µM) | 21 | 250 (≈ 527 µM) | 12 | 62.5 (≈ 132 µM) | 250 (≈ 527 µM) | 500 (≈ 1050 µM) | 17 | 13 | 17
2 | CC1(C)O[C@H]2O[C@@H]3COB(c4cccc(/N=C/c5cc([N+](=O)[O-])ccc5O)c4)O[C@@H]3[C@H]2O1 | 31.2 (≈ 71 µM) | 62.5 (≈ 142 µM) | 21 | 28 | 22 | 15.6 (≈ 35.5 µM) | 31.2 (≈ 71 µM) | 25 | 31.2 (≈ 71 µM) | 18 | 15.6 (≈ 35.5 µM) | 31.2 (≈ 71 µM) | 62.5 (≈ 142 µM) | 23 | 21 | 23
3 | Cc1ccc(/N=C/c2cccc(B(O)O)c2)cc1 | 500 (≈ 2090 µM) | 500 (≈ 2090 µM) | 0 | 8 | 0 | 500 (≈ 2090 µM) | 250 (≈ 1050 µM) | 0 | 500 (≈ 2090 µM) | 0 | 500 (≈ 2090 µM) | 500 (≈ 2090 µM) | 500 (≈ 2090 µM) | 0 | 8 | 9
4 | O=[N+]([O-])c1ccc(O)c(/C=N/c2cccc(B(O)O)c2)c1 | 500 (≈ 1750 µM) | 500 (≈ 1750 µM) | 0 | 11 | 0 | 500 (≈ 1750 µM) | 125 (≈ 437 µM) | 0 | 500 (≈ 1750 µM) | 0 | 250 (≈ 874 µM) | 500 (≈ 1750 µM) | 500 (≈ 1750 µM) | 0 | 8 | 9
5 | CC1(C)O[C@H]2O[C@@H]3COB(c4ccc(C=O)cc4)O[C@@H]3[C@H]2O1 | 125 (≈ 411 µM) | 62.5 (≈ 206 µM) | 21 | 22 | 0 | 31.2 (≈ 103 µM) | 62.5 (≈ 206 µM) | 12 | 125 (≈ 411 µM) | 20 | 125 (≈ 411 µM) | 31.2 (≈ 103 µM) | 250 (≈ 822 µM) | 18 | 12 | 21
6 | CC1(C)O[C@H]2O[C@@H]3COB(c4cccc(/N=C/c5ccccc5O)c4)O[C@@H]3[C@H]2O1 | 125 (≈ 316 µM) | 125 (≈ 316 µM) | 13 | 22 | 0 | 62.5 (≈ 158 µM) | 62.5 (≈ 158 µM) | 22 | 250 (≈ 633 µM) | 16 | 62.5 (≈ 158 µM) | 250 (≈ 633 µM) | 500 (≈ 1270 µM) | 14 | 13 | 20
7 | CC1(C)O[C@H]2O[C@@H]3COB(c4cccc(C=O)c4)O[C@@H]3[C@H]2O1 | 250 (≈ 822 µM) | 62.5 (≈ 206 µM) | 18 | 18 | 0 | 62.5 (≈ 206 µM) | 62.5 (≈ 206 µM) | 12 | 250 (≈ 822 µM) | 19 | 250 (≈ 822 µM) | 62.5 (≈ 206 µM) | 500 (≈ 1640 µM) | 11 | 15 | 22
8 | CC(C)c1ccc(/N=C/c2cccc(B3OC[C@H]4O[C@@H]5OC(C)(C)O[C@@H]5[C@H]4O3)c2)cc1 | 250 (≈ 593 µM) | 125 (≈ 297 µM) | 21 | 23 | 0 | 62.5 (≈ 148 µM) | 125 (≈ 297 µM) | 12 | 250 (≈ 593 µM) | 16 | 250 (≈ 593 µM) | 125 (≈ 297 µM) | 500 (≈ 1190 µM) | 16 | 13 | 16
9 | OB(O)c1ccc(/C=N/c2ccc(F)cc2)cc1 | 500 (≈ 2060 µM) | 500 (≈ 2060 µM) | 0 | 9 | 0 | 500 (≈ 2060 µM) | 250 (≈ 1030 µM) | 0 | 500 (≈ 2060 µM) | 0 | 500 (≈ 2060 µM) | 500 (≈ 2060 µM) | 500 (≈ 2060 µM) | 0 | 9 | 11
10 | CC1(C)O[C@H]2O[C@@H]3COB(c4cccc(/C=N/c5ccccc5)c4)O[C@@H]3[C@H]2O1 | 250 (≈ 659 µM) | 125 (≈ 330 µM) | 21 | 21 | 0 | 62.5 (≈ 165 µM) | 62.5 (≈ 165 µM) | 14 | 125 (≈ 330 µM) | 19 | 250 (≈ 659 µM) | 62.5 (≈ 165 µM) | 500 (≈ 1320 µM) | 11 | 13 | 21
